SMILES strings stand for the structures.

Experiment [1] relates to ornithine décarboxylase rénale. Description: Androgen or anti-androgen activity by assay of renal ornithine decarboxylase in castrated mice, oral treatment. Type of experiment: in vivo, souris mâles SWISS. The note with it: kidneys taken 16 h after treatment; for Antagonisme (PO): with testosterone propionate 3 mg/kg s.c. The protocol:
2) Détermination de l'activité androgène ou anti-androgène des produits de l'invention à l'aide du dosage de l'ornithine de carboxylase.
16 heures après les traitements, les animaux sont sacrifiés, les reins prélevés, puis homogénéisés à 0°C , à l'aide d'un broyeur téflon-verre dans 10 volumes de tampon Tris-HCl 50 mM (pH 7,4) contenant 250 uM de phosphate de pyridoxal, 0,1 mM EDTA, et 5 mM de dithiothreitol. L'homogenat est ensuite centrifugé à 105000 g pendant 45 mn.
A 37°C, l'ornithine décarboxylase rénale transforme un mélange isotopique d'ornithine froide et d'ornithine tritiée en putrescine froide et putrescine tritiée.
La putrescine est ensuite recueillie sur des papiers sélectifs, échangeurs d'ions. Après séchage, l'excès d'ornithine tritiée et froide non transformée est éliminé, par 3 lavages d'ammoniaque 0,1 M. Les papiers sont séchés, puis la radioactivité est comptée après addition de scintillant Aqualite.
Les résultats sont exprimés en fmoles ([…]) de putrescine tritiée formée/heure/mg de protéines.

The target in experiment [2] is T1, récepteur androgène (Rattus norvegicus, UniProt P15207).
T1 construct: Des aliquotes du surnageant obtenu (=cytosol), sont incubées 30 minutes et 24 heures à 0°C; from tissue; host or cells: prostate cytosol (105 000 g supernatant) of castrated male Sprague Dawley rats
T1 sequence (P15207 1-902): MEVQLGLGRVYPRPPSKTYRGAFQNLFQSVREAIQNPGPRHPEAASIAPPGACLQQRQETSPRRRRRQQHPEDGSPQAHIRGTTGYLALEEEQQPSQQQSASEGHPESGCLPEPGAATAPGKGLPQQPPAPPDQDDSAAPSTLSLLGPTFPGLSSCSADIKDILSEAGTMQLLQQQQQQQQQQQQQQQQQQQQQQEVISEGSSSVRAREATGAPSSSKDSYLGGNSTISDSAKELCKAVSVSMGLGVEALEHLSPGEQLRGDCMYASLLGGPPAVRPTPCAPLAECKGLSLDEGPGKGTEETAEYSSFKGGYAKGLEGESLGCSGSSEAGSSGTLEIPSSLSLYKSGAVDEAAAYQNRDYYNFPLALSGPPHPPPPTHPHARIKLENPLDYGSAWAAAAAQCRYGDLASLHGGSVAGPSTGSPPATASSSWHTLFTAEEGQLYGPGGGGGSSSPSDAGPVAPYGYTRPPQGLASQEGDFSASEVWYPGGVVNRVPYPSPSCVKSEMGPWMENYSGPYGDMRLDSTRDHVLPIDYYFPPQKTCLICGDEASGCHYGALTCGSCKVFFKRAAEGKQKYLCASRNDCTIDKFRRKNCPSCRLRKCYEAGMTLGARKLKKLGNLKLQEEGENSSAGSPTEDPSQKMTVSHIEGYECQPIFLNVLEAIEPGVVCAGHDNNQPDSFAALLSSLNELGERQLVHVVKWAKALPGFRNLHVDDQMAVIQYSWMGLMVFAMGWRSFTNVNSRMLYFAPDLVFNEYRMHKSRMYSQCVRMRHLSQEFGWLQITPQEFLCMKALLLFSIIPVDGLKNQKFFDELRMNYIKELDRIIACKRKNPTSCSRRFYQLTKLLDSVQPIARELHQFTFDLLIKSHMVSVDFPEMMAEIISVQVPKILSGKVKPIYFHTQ
Description: Affinity for the androgen receptor: relative binding affinity (ARL), displacement of tritiated testosterone in prostate cytosol of castrated rats. Also noted: species or system rats mâles Sprague Dawley EOPS. The note with it: testosterone = 100, ARL=100 (CH)/(CX); for ARL (affinité relative de liaison), Incubation : 30 minutes: incubation 30 minutes at 0°C; for ARL (affinité relative de liaison), Incubation : 24 heures: incubation 24 hours at 0°C. The method, then: 1) Etude de l'affinité des produits de l'invention pour le récepteur androgène
Des rats mâles Sprague Dawley EOPS de 180-200 g, castrés de 24 heures, sont sacrifiés, les prostates prélevées, pesées et homogénéisées à 0°C à l'aide d'un potter verre-verre, dans une solution tamponnée (Tris 10mM, saccharose 0,25M, PMSF (phénylméthanesulfonylfluoride) 0,1mM, Molybdate de sodium 20mM, HCl pH 7,4; auxquels on ajoute extemporanément 2mM de DTT (DL dithiothreitol), à raison de 1 g de tissu pour 8 ml de tampon.
L'homogénat est ensuite ultracentrifugé à 0°C, 45 minutes à 105 000 g.
Calcul de l'affinité relative de liaison (ARL).
On trace les 2 courbes suivantes : le pourcentage de l'hormone tritiée liée B/T en fonction du logarithme de la concentration de l'hormone de référence froide et B/T en fonction du logarithme de la concentration du produit froid testé. On détermine la droite d'équation I50=(B/Tmax + B/Tmin)/2. B/T max= % de l'hormone tritiée liée pour une incubation de cette hormone tritiée à la concentration (T). B/T min= % de l'hormone tritiée liée pour une incubation de cette hormone tritiée à la concentration (T) en présence d'un grand excès d'hormone froide (2500.10^-9M).
Les intersections de la droite I50 et des courbes, permettent d'évaluer les concentrations de l'hormone de référence froide (CH) et du produit froid testé (CX) qui inhibent de 50 % la liaison de l'hormone tritiée sur le récepteur.

Take `CN1C(=S)N(c2ccc(C#N)c(C(F)(F)F)c2)C(=N)C1(C)C` [Produit de l'exemple 11, 4-(5-imino-2-thioxo-3,4,4-triméthyl-1-imidazolidinyl)-2-(trifluorométhyl)-benzonitrile]: the “Antagonisme (PO)” value in experiment [1] (3 mg/kg PO) was 3 mg/kg : 83%. Also, in experiment [2], the “ARL (affinité relative de liaison), Incubation : 30 minutes” value was 28 and the “ARL (affinité relative de liaison), Incubation : 24 heures” value came out at 8.

Take `CC1(C)NC(=S)N(c2ccc(C#N)c(C(F)(F)F)c2)C1=O` [Produit de l'exemple 15, 4-(4,4-diméthyl-5-oxo-2-thioxo-1-imidazolidinyl)-2-(trifluorométhyl)-benzonitrile]: the “Antagonisme (PO)” value in experiment [1] (0,3 mg/kg PO) is 0,3 mg/kg : 4%. In addition, in experiment [1] (1 mg/kg PO), the “Antagonisme (PO)” value is recorded as 1 mg/kg : 82%. Further, in experiment [2], the “ARL (affinité relative de liaison), Incubation : 30 minutes” value is on record as 69 and the “ARL (affinité relative de liaison), Incubation : 24 heures” value was 24.

Consider `CN1C(=S)N(c2ccc(C#N)c(C(F)(F)F)c2)C(=S)C1(C)C` [Produit de l'exemple 13, 4-(2,5-dithioxo-3,4,4-triméthyl-1-imidazolidinyl)-2-(trifluorométhyl)-benzonitrile], for which, in experiment [2], the “ARL (affinité relative de liaison), Incubation : 30 minutes” value is given as 31 and the “ARL (affinité relative de liaison), Incubation : 24 heures” value was 39.

On to `CCN1C(=O)N(c2ccc([N+](=O)[O-])c(C(F)(F)F)c2)C(=O)C1(C)C` [Produit de l'exemple 2, 5,5-diméthyl-1-éthyl-3-(4-nitro-3-(trifluorométhyl)phényl)-2,4-imidazolidinedione], for which, in experiment [2], the “ARL (affinité relative de liaison), Incubation : 30 minutes” value came out at 22 and the “ARL (affinité relative de liaison), Incubation : 24 heures” value was 6.

In the case of `CN1C(=O)N(c2ccc([N+](=O)[O-])c(C(F)(F)F)c2)C(=O)C1(C)C` [Produit de l'exemple 1, 1-(4-nitro-3-(trifluorométhyl)phényl)-3,4,4-triméthyl-2,5-imidazolidinedione], in experiment [2], the “ARL (affinité relative de liaison), Incubation : 30 minutes” value is 27,5 and the “ARL (affinité relative de liaison), Incubation : 24 heures” value came to 3.

As to `CN1C(=S)N(c2ccc(C#N)c(C(F)(F)F)c2)C(=O)C1(C)C` [Produit de l'exemple 12, 4-(5-oxo-2-thioxo-3,4,4-triméthyl-1-imidazolidinyl)-2-(trifluorométhyl)-benzonitrile], the “Antagonisme (PO)” value in experiment [1] (0,1 mg/kg PO) is given as 0,1 mg/kg : 12%; in experiment [1] (0,3 mg/kg PO), 0,3 mg/kg : 36%; in experiment [1] (1 mg/kg PO), 1 mg/kg : 68%; in experiment [1] (3 mg/kg PO) it was 3 mg/kg : 94%; in experiment [1] (10 mg/kg PO), 10 mg/kg : 99%. In experiment [1] (10 mg/kg PO, without testosterone propionate), the “Angonisme (PO)” value was 10 mg/kg : 0%. Also, the “ARL (affinité relative de liaison), Incubation : 30 minutes” value in experiment [2] was determined as 128. For the same compound, the “ARL (affinité relative de liaison), Incubation : 24 heures” value in experiment [2] is 92.

With `CC1(C)NC(=S)N(c2ccc(C#N)c(C(F)(F)F)c2)C1=N` [Produit de l'exemple 14, 4-(4,4-diméthyl-5-imino-2-thioxo-1-imidazolidinyl)-2-(trifluorométhyl)-benzonitrile], the “Antagonisme (PO)” value in experiment [1] (3 mg/kg PO) was 3 mg/kg : 87%. Also, in experiment [2], the “ARL (affinité relative de liaison), Incubation : 30 minutes” value is given as 27 and the “ARL (affinité relative de liaison), Incubation : 24 heures” value is given as 7.

Turning to `CC(C)N1C(=O)N(c2ccc([N+](=O)[O-])c(C(F)(F)F)c2)C(=O)C1(C)C` [Produit de l'exemple 4, 5,5-diméthyl-1-(1-méthyl éthyl)-3-(4-nitro-3-(trifluorométhyl)phényl)-2,4-imidazolidinedione], in experiment [2], the “ARL (affinité relative de liaison), Incubation : 30 minutes” value is recorded as 21 and the “ARL (affinité relative de liaison), Incubation : 24 heures” value worked out at 5.
